Assay [1] addresses T1, Human PDE10A2 (Homo sapiens (Human), UniProt Q9Y233). Nature of the assay: Biochemical human PDE10A activity assay - PDE10A2 Phosphate Sensor Assay. The conditions noted are these: cGMP 3 μM substrate, PDE10A2 0.25 nM. As for the experimental part:
Biochemical Human PDE10A Activity Assay—PDE10A2 Phosphate Sensor Assay
Semi Log compound dilutions starting at a final concentration of 50 μM were dispensed into a black 384 well plate alongside, DMSO and an Inhibited control using the Echo Acoustic dispenser. […] Data was analysed using a 4-parameter fit.

The target in assay [2] is T1, Human PDE10A2. Kind of assay: Cell based human PDE10A activity assay - cAMP HTRF assay in HEK 293 rhPDE10A2 cell line. Here is the method: Semi log compound dilutions starting at a final concentration of 10 μM were dispensed into a white 384 well plate, alongside DMSO and an Inhibited control using the Tecan D300e digital dispenser. HEK 293 cells overexpressing recombinant human PDE10A2 were seeded on top of the compounds at 2500 cells/well in a volume 5 μL/well. The plate was incubated at room temperature for 60 minutes. To induce endogenous cAMP, 5 μL/well of Forskolin at a final assay concentration of 10 μM was added to the plate. The plate was incubated at room temperature for a further 45 minutes. cAMP HTRF detection reagents were added, and the plate was incubated for 60 minutes at room temperature. […] Data was analysed using a 4-parameter fit.
Background: TR-FRET usually uses a lanthanide donor and a delayed reading to cut background.

Where [3] appears, read: Forskolin 10 μM, read-out: cAMP HTRF Assay in HEK 293 rhPDE10A2 cell line (pIC50) (converted).

Read-outs that look alike come from different tables or passages of the source.

T1 sequence (Q9Y233 267-1055): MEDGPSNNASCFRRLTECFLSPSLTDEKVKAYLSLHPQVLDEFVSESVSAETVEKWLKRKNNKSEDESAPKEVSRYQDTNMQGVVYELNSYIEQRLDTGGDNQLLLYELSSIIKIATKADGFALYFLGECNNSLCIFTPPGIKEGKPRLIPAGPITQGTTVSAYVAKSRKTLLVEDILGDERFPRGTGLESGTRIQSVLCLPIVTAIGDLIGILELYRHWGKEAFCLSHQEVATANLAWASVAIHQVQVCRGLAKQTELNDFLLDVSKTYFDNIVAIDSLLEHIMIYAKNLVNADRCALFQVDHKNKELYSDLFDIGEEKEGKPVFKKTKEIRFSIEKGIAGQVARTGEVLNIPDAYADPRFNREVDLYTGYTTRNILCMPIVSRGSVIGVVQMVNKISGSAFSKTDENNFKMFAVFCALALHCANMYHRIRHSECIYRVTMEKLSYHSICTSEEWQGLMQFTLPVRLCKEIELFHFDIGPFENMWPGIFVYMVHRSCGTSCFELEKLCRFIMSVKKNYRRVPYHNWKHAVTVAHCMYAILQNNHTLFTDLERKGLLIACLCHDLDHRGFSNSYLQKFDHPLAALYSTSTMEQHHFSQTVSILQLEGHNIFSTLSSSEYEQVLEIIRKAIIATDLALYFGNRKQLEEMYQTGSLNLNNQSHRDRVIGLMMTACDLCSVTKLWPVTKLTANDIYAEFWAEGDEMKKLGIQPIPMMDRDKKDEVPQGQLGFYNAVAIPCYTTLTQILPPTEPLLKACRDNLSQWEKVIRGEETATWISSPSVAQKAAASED

Regarding `CS(C)(=O)=Nc1cc(COc2ccc(-c3n[nH]cc3-c3ccncc3)cc2)nc2ccccc12` [Example 32, Dimethyl-oxo-[[2-[[4-[4-(4-pyridyl)-1H-pyrazol-3-yl]phenoxy]methyl]-4-quinolyl]imino]-λ6-sulfane], on Human PDE10A2 [1], the “PDE10A2 Phosphate Sensor Enzyme Assay (pIC50)” value is reported as 10.3. At Human PDE10A2 [2] (setting [3]), the IC50 was 46.8 nM.
`CNC(=O)Nc1cc(COc2ccc(-c3nn(C)cc3-c3ccncc3)cc2)nc2ccccc12` [Example 35, 1-Methyl-3-[2-[[4-[1-methyl-4-(4-pyridyl)pyrazol-3-yl]phenoxy]methyl]-4-quinolyl]urea]: on Human PDE10A2 [1], the “PDE10A2 Phosphate Sensor Enzyme Assay (pIC50)” value amounted to 9.67. The IC50 at Human PDE10A2 [2] (setting [3]) was 3.47 nM.
The like results for `Cn1cc(-c2ccncc2)c(-c2ccc(OCc3nc4cc(F)ccc4cc3C(=O)N=S(C)(C)=O)cc2)n1` [Example 21, N-[Dimethyl(oxo)-λ6-sulfanylidene]-7-fluoro-2-[[4-[1-methyl-4-(4-pyridyl)pyrazol-3-yl]phenoxy]methyl]quinoline-3-carboxamide] were, in that order, 8.32 and 550 nM.
As for `CS(=O)(=O)n1cc(-c2ccncc2)c(-c2ccc(OCc3ccc4ccccc4n3)cc2)n1` [Example 6, 2-[[4-[1-Methylsulfonyl-4-(4-pyridyl)pyrazol-3-yl]phenoxy]methyl]quinoline], the “PDE10A2 Phosphate Sensor Enzyme Assay (pIC50)” value at Human PDE10A2 [1] turned out to be 8.36. For the same compound, at Human PDE10A2 [2] (setting [3]), the IC50 is 64.6 nM.
On to `Cn1cc(-c2ccncc2)c(-c2ccc(OCc3nc(N4CC(N)C4)c4ccccc4n3)cc2)n1` [Example 39, 1-[2-[[4-[1-Methyl-4-(4-pyridyl)pyrazol-3-yl]phenoxy]methyl]quinazolin-4-yl]azetidin-3-amine], for which, on Human PDE10A2 [1], the “PDE10A2 Phosphate Sensor Enzyme Assay (pIC50)” value was 9.46. Also, on Human PDE10A2 [2] (setting [3]), the IC50 is 24.5 nM.
Take `Cn1cc(-c2ccncc2)c(-c2ccc(OCc3nc(N4CCS(=O)(=O)CC4)c4ccccc4n3)cc2)n1` [Example 37, 4-[2-[[4-[1-Methyl-4-(4-pyridyl)pyrazol-3-yl]phenoxy]methyl]quinazolin-4-yl]-1,4-thiazinane 1,1-dioxide]: the “PDE10A2 Phosphate Sensor Enzyme Assay (pIC50)” value on Human PDE10A2 [1] stood at 9.65. In addition, the IC50 at Human PDE10A2 [2] (setting [3]) is 1.48 nM.
Regarding `O=C(O)c1cc2ccccc2nc1COc1ccc(-c2n[nH]cc2-c2ccncc2)cc1` [Example 29, 2-[[4-[4-(4-Pyridyl)-1H-pyrazol-3-yl]phenoxy]methyl]quinoline-3-carboxylic acid], the “PDE10A2 Phosphate Sensor Enzyme Assay (pIC50)” value on Human PDE10A2 [1] amounted to 10. In addition, the IC50 on Human PDE10A2 [2] (setting [3]) was 0.347 nM.
Consider `CS(C)(=O)=NC(=O)c1cc(COc2ccc(-c3n[nH]cc3-c3ccncc3)cc2)nc2ccccc12` [Example 12, N-[Dimethyl(oxo)-λ6-sulfanylidene]-2-[[4-[4-(4-pyridyl)-1H-pyrazol-3-yl]phenoxy]methyl]quinoline-4-carboxamide], for which the “PDE10A2 Phosphate Sensor Enzyme Assay (pIC50)” value at Human PDE10A2 [1] turned out to be 9.84. The IC50 at Human PDE10A2 [2] (setting [3]) is 5.01 nM.
The like results for `Cn1cc(-c2ccncc2)c(-c2ccc(OCc3nc4cccc(F)c4cc3C(=O)N=S(C)(C)=O)cc2)n1` [Example 23, N-[Dimethyl(oxo)-λ6-sulfanylidene]-5-fluoro-2-[[4-[1-methyl-4-(4-pyridyl)pyrazol-3-yl]phenoxy]methyl]quinoline-3-carboxamide] were, in that order, 9.59 and 3.98 nM.
Consider `Cn1cc(-c2ccncc2)c(-c2ccc(OCc3cc(C(=O)N=S(C)(C)=O)c4c(Cl)cccc4n3)cc2)n1` [Example 26, 5-Chloro-N-[Dimethyl(oxo)-λ6-sulfanylidene]-2-[[4-[1-methyl-4-(4-pyridyl)pyrazol-3-yl]phenoxy]methyl]quinoline-4-carboxamide], for which, at Human PDE10A2 [1], the “PDE10A2 Phosphate Sensor Enzyme Assay (pIC50)” value was 9.13. In addition, the IC50 on Human PDE10A2 [2] (setting [3]) is 42.7 nM.
With `Cn1cc(-c2ccncc2)c(-c2ccc(OCc3nc(N4CCNC(=O)C4)c4ccccc4n3)cc2)n1` [Example 38, 4-[2-[[4-[1-Methyl-4-(4-pyridyl)pyrazol-3-yl]phenoxy]methyl]quinazolin-4-yl]piperazin-2-one], the “PDE10A2 Phosphate Sensor Enzyme Assay (pIC50)” value on Human PDE10A2 [1] was 10.1. The IC50 on Human PDE10A2 [2] (setting [3]) is 0.269 nM.
For the compound `Cn1ncc(-c2ccncc2)c1-c1ccc(OCc2cc(C(=O)O)c3ccccc3n2)cc1` [Example 1, 2-[[4-[2-Methyl-4-(4-pyridyl)pyrazol-3-yl]phenoxy]methyl]quinoline-4-carboxylic acid], on Human PDE10A2 [1], the “PDE10A2 Phosphate Sensor Enzyme Assay (pIC50)” value came to 9.43. Besides, the IC50 on Human PDE10A2 [2] (setting [3]) is 1.95 nM.
`CCn1cc(-c2ccncc2)c(-c2ccc(OCc3cc(C(=O)N=S(C)(C)=O)c4ccccc4n3)cc2)n1` [Example 27, N-[Dimethyl(oxo)-λ6-sulfanylidene]-2-[[4-[1-ethyl-4-(4-pyridyl)pyrazol-3-yl]phenoxy]methyl]quinoline-4-carboxamide]: the “PDE10A2 Phosphate Sensor Enzyme Assay (pIC50)” value on Human PDE10A2 [1] is given as 10.2. Moreover, the IC50 on Human PDE10A2 [2] (setting [3]) was 0.537 nM.
On to `Cn1cc(-c2ccncc2)c(-c2ccc(OCc3cc(C(=O)N=S(C)(C)=O)c4cc(F)ccc4n3)cc2)n1` [Example 25, N-[Dimethyl(oxo)-λ6-sulfanylidene]-6-fluoro-2-[[4-[1-methyl-4-(4-pyridyl)pyrazol-3-yl]phenoxy]methyl]quinoline-4-carboxamide], for which the “PDE10A2 Phosphate Sensor Enzyme Assay (pIC50)” value at Human PDE10A2 [1] was 9.41. Also, the IC50 at Human PDE10A2 [2] (setting [3]) is 3.63 nM.
With `Cn1cc(-c2ccncc2)c(-c2ccc(OCc3nc4ccccc4nc3N3CCNCC3)cc2)n1` [Example 42, 2-[[4-[1-Methyl-4-(4-pyridyl)pyrazol-3-yl]phenoxy]methyl]-3-piperazin-1-yl-quinoxaline], the “PDE10A2 Phosphate Sensor Enzyme Assay (pIC50)” value at Human PDE10A2 [1] came out at 8.96. The same compound showed an IC50 against Human PDE10A2 [2] of 12.3 nM.
As to `Cn1cc(-c2ccncc2)c(-c2ccc(OCc3nc(N4CCNCC4)c4ccccc4n3)cc2)n1` [Example 40, 2-[[4-[1-Methyl-4-(4-pyridyl)pyrazol-3-yl]phenoxy]methyl]-4-piperazin-1-yl-quinazoline], on Human PDE10A2 [1], the “PDE10A2 Phosphate Sensor Enzyme Assay (pIC50)” value came to 8.98. Besides, at Human PDE10A2 [2] (setting [3]), the IC50 is 4.57 nM.
For the compound `Cn1cc(-c2ccncc2)c(-c2ccc(OCc3nc4ccccc4cc3C(=O)N=S3(=O)CCCC3)cc2)n1` [Example 13, 2-[[4-[1-Methyl-4-(4-pyridyl)pyrazol-3-yl]phenoxy]methyl]-N-(1-oxothiolan-1-ylidene)quinoline-3-carboxamide], the “PDE10A2 Phosphate Sensor Enzyme Assay (pIC50)” value at Human PDE10A2 [1] came out at 9.86. Besides, the IC50 at Human PDE10A2 [2] (setting [3]) is 0.977 nM.
On to `CS(C)(=O)=NC(=O)c1cc2ccccc2nc1COc1ccc(-c2n[nH]cc2-c2ccncc2)cc1` [Example 31, N-[Dimethyl(oxo)-λ6-sulfanylidene]-2-[[4-[4-(4-pyridyl)-1H-pyrazol-3-yl]phenoxy]methyl]quinoline-3-carboxamide], for which the “PDE10A2 Phosphate Sensor Enzyme Assay (pIC50)” value on Human PDE10A2 [1] turned out to be 10. This compound had an IC50 against Human PDE10A2 [2] of 13.8 nM.
For the compound `Cn1cc(-c2ccncc2)c(-c2ccc(OCc3cc(NC(=O)N=S(C)(C)=O)c4ccccc4n3)cc2)n1` [Example 36, 1-[Dimethyl(oxo)-λ6-sulfanylidene]-3-[2-[[4-[1-methyl-4-(4-pyridyl)pyrazol-3-yl]phenoxy]methyl]-4-quinolyl]urea], the “PDE10A2 Phosphate Sensor Enzyme Assay (pIC50)” value on Human PDE10A2 [1] is 9.46. Further, the IC50 at Human PDE10A2 [2] (setting [3]) was 16.6 nM.
With `Cn1cc(-c2ccncc2)c(-c2ccc(OCc3cc(NS(C)(=O)=O)c4ccccc4n3)cc2)n1` [Example 34, N-[2-[[4-[1-Methyl-4-(4-pyridyl)pyrazol-3-yl]phenoxy]methyl]-4-quinolyl]methanesulfonamide], the “PDE10A2 Phosphate Sensor Enzyme Assay (pIC50)” value at Human PDE10A2 [1] was 9.54. On Human PDE10A2 [2] (setting [3]), the IC50 is 1.2 nM.
As to `CS(=N)(=O)c1cc(COc2ccc(-c3n[nH]cc3-c3ccncc3)cc2)nc2ccccc12` (stereo not shown) [Example 33, Imino-methyl-oxo-[2-[[4-[4-(4-pyridyl)-1H-pyrazol-3-yl]phenoxy]methyl]-4-quinolyl]-λ6-sulfane], the “PDE10A2 Phosphate Sensor Enzyme Assay (pIC50)” value at Human PDE10A2 [1] was 9.32. The IC50 at Human PDE10A2 [2] (setting [3]) is 8.91 nM.
As for `CS(C)(=O)=NC(=O)c1cc(COc2ccc(-c3nn(CC(F)(F)F)cc3-c3ccncc3)cc2)nc2ccccc12` [Example 8, N-[Dimethyl(oxo)-λ6-sulfanylidene]-2-[[4-[4-(4-pyridyl)-1-(2,2,2-trifluoroethyl)pyrazol-3-yl]phenoxy]methyl]quinoline-4-carboxamide], the “PDE10A2 Phosphate Sensor Enzyme Assay (pIC50)” value on Human PDE10A2 [1] worked out at 10.2. The IC50 at Human PDE10A2 [2] (setting [3]) is 0.38 nM.
Taken in the same sequence, the figures for `Cn1cc(-c2ccncc2)c(-c2ccc(OCc3nc4ccc(F)cc4cc3C(=O)N=S(C)(C)=O)cc2)n1` [Example 22, N-[Dimethyl(oxo)-λ6-sulfanylidene]-6-fluoro-2-[[4-[1-methyl-4-(4-pyridyl)pyrazol-3-yl]phenoxy]methyl]quinoline-3-carboxamide] were 9.49 and 17.4 nM.
Consider `CS(C)(=O)=NC(=O)c1cc(COc2ccc(-c3nn(C4CC4)cc3-c3ccncc3)cc2)nc2ccccc12` [Example 28, 2-[[4-[1-Cyclopropyl-4-(4-pyridyl)pyrazol-3-yl]phenoxy]methyl]-N-[dimethyl(oxo)-λ6-sulfanylidene]quinoline-4-carboxamide], for which, at Human PDE10A2 [1], the “PDE10A2 Phosphate Sensor Enzyme Assay (pIC50)” value turned out to be 9.42. In addition, the IC50 at Human PDE10A2 [2] (setting [3]) is 2.75 nM.
On to `Cc1ccc2nc(COc3ccc(-c4nn(C)cc4-c4ccncc4)cc3)c(C(=O)N=S(C)(C)=O)cc2c1` [Example 24, N-[Dimethyl(oxo)-λ6-sulfanylidene]-6-methyl-2-[[4-[1-methyl-4-(4-pyridyl)pyrazol-3-yl]phenoxy]methyl]quinoline-3-carboxamide], for which the IC50 on Human PDE10A2 [2] (setting [3]) was 331 nM.
